Literature values in patent publication US7211274B2, “Hair growth formulation” (Hovis SDN BHD, priority 2002, dated 2007).

Conditions: reported

Row | Half life in humans | Substance
1 | about 20 hours | tocopherols
2 | 2 to 4 h | tocotrienols
